# Data taken from paper PMC11352409, “Subtype-Specific Ligand Binding and Activation Gating in Homomeric and Heteromeric P2X Receptors” (Biomolecules, 2024).
# Biological target: T1, human P2X2 receptors (Homo sapiens, UniProt Q9UBL9)
# T1 construct: expressed in transfected cells
# T1 sequence (Q9UBL9 1-404 isoform Q9UBL9-2): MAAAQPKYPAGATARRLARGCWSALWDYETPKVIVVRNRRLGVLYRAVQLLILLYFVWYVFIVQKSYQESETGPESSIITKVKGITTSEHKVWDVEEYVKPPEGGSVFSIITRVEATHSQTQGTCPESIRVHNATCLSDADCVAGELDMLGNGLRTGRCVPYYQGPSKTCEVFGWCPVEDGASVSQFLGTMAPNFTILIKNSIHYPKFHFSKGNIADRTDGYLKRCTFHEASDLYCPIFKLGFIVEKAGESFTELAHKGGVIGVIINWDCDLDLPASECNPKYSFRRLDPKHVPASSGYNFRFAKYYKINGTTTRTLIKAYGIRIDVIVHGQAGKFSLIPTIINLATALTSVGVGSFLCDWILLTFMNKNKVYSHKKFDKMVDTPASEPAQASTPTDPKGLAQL
# Test: Confocal microscopy binding of fluorescent ATP derivatives to HEK293 cells expressing hP2X2
# Conditions: for Binding to receptor: hP2X2, confocal binding signal
# Procedure: For the detection of ligand binding, the cells were incubated with the fluorescent ATP derivatives in chambered coverslips or 96-well plates with cover-slip bottoms. The surface was coated with 0.1 mg/mL of poly-L-lysine for 12 h and washed twice with PBS before seeding the cells at […] density. The cells were suspended 24 h after induction and allowed to settle for two hours before being utilised for the measurements. The solutions were freshly prepared before each experiment. The bulk solution was counter-stained with the red fluorescence dye Dy647. Each confocal voxel covering the cell membrane contained both the signal from the bound ligand and the signal from ligands in the bulk solution. This additional signal, e.g., the fraction of the bulk solution inside a voxel, varied from pixel to pixel and can hardly be described theoretically.
# Figure 2 Confocal microscopy was used to characterise the binding of fluorescently tagged ligands to HEK 293 cells stably expressing human P2X2 receptors. (a) Structure of fATP and α,βMe-fATP. The dye DY547P1 is attached to the 2-position of the purine ring through an aminohexylthio-linker. (b) Representative confocal images for quantification of fATP and α,βMe-fATP binding, including approximately 200 stably transfected cells/mm^2. Specific binding is proven by the lack of signal in non-induced cells and in cells expressing P2X2 receptors in the presence of 100 µM ATP. […]
# The concentration–binding relationships were normalised to their maximum relative fluorescence intensities at a saturating fATP or α,βMe-fATP concentration.
# Measuring the binding of ligands to receptors is challenging. […] Ligand binding was measured in stably transfected HEK293 cells expressing P2X receptors, attached to the glass bottom of the experimental chamber (Figure 2b). Quantifying ligand binding by automated fluorescence methods remains demanding at low expression levels and high ligand concentrations when the background signal becomes significant. To address this issue, we used the red fluorescence dye Dy647 at a concentration of 1 µM [27, 33, 34]. […]
Binding to receptor,"Fraction of ligand remaining bound at high Mg2+ (hP2X2, fATP binding after application of 10 mM Mg2+)",Compound
robust binding affinity,~ 40%,"COCC[N+]1=C(C=CC=C2N(CCCCCC(=O)NCCCCCCSc3nc(N)c4ncn(C5OC(COP(=O)(O)OP(=O)(O)OP(=O)(O)O)C(O)C5O)c4n3)c3ccc(S(=O)(=O)O)cc3C2(C)C)C(C)(C)c2cc(S(=O)(=O)[O-])ccc21 (stereo not drawn) [fATP, 2-[DY-547P1]-AHT-ATP]"
robust binding affinity,–,"COCC[N+]1=C(C=CC=C2N(CCCCCC(=O)NCCCCCCSc3nc(N)c4ncn(C5OC(COP(=O)(O)CP(=O)(O)OP(=O)(O)O)C(O)C5O)c4n3)c3ccc(S(=O)(=O)O)cc3C2(C)C)C(C)(C)c2cc(S(=O)(=O)[O-])ccc21 (stereo not drawn) [α,βMe-fATP, 2-[DY-547P1]-AHT-α,βMe-ATP]"
